Laboratory results published in PMC5478869, “New Hydroxycinnamic Acid Esters as Novel 5-Lipoxygenase Inhibitors That Affect Leukotriene Biosynthesis” (Mediators of Inflammation, 2017).

molecular target: T1, 5-LO (Homo sapiens, UniProt P09917); experiment: Biosynthesis of 5-LO products by thapsigargin-stimulated PMNL; assay type: cell-based; set-up: endogenous in cells; host or cells: human polymorphonuclear leukocytes (PMNL) isolated from whole blood; details: freshly isolated human PMNL, 5 min preincubation, 1 μM thapsigargin 15 min; 95% CI in brackets; read-out: IC50 (95% CI) for the inhibition of 5-LO product biosynthesis in human PMNL
T1 sequence (P09917 1-674): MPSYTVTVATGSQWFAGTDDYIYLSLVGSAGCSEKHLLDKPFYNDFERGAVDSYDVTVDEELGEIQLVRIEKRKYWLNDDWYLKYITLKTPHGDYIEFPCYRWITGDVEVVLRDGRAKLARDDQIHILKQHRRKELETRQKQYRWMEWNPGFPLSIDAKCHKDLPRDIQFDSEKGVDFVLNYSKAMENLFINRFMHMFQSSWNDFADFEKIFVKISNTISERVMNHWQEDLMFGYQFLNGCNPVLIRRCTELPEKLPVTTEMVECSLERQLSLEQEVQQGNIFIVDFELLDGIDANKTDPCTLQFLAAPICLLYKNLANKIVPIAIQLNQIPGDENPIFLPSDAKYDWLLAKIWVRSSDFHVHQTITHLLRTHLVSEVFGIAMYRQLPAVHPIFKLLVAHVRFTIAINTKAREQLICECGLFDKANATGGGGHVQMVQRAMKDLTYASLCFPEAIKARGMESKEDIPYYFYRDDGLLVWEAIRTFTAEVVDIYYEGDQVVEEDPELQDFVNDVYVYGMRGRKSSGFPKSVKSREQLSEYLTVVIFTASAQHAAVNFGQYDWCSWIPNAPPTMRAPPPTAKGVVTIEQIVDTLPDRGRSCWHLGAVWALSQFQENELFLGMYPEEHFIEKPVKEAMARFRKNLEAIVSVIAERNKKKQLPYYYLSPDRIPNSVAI
Experimental: Polymorphonuclear leukocytes (PMNL) were isolated as previously described. Briefly, whole blood was collected (with anticoagulant citrate dextrose (ACD)) and then centrifuged at 500 g for 10 min. Platelet-rich plasma (PRP) was set aside for platelet isolation (see below), and erythrocytes were removed by dextran sedimentation. After a centrifugation step at 900 g × 20 min at room temperature on a lymphocyte separation medium cushion (density, 1.077 g/ml) (Wisent), PMNL were obtained (>96%) followed by hypotonic lysis of the remaining erythrocytes. PMNL were counted and resuspended at 10^7 cells/ml in HBSS supplemented with 1.6 mM CaCl2. PRP was processed as previously described for platelet isolation. Briefly, PRP was centrifuged at 400 g for 2 min at room temperature to remove the remaining erythrocytes. The supernatant was then centrifuged at 1300g for 10 min to pellet platelets. Cells were resuspended in Tyrode Buffer pH 7.4 (134 mM NaCl, 2.9 mM KCl, 0.34 mM Na2HPO4, 12 mM NaHCO3, 20 mM HEPES, 1 mM MgCl2, 5 mM glucose, and 0.5 mg/ml BSA) at 3 × 10^8 cells/ml in the presence of 5 mM CaCl2.
Suspended PMNL (10^7 cells/ml) were incubated at 37°C with adenosine deaminase (0.3 U/ml, Sigma-Aldrich) and test compounds at indicated concentrations 5 min before stimulation. To initiate stimulation, 1 μM of thapsigargin (Sigma-Aldrich) was added to cells which were then incubated for 15 min at 37°C [31]. Two volumes of MeOH:MeCN (1 : 1) containing the internal standard PGB2 (100 ng/ml) was then added, and samples were processed for RP-HPLC analysis as described above.
Statistical analysis and graph design were performed with GraphPad Prism 5 software (GraphPad Software, San Diego, California). IC50 values were calculated from a sigmoidal concentration-response curve-fitting model and are expressed as means with 95% confidence intervals. All other data are expressed as mean ± SEM. One-way ANOVA with Dunnett's multiple comparison test (p < 0.05) were performed to determine significant difference from controls.
Figure 2 Effect of the test compounds on the biosynthesis of 5-LO products in transfected HEK293 cells (a) and thapsigargin-stimulated PMNL (b). (a) HEK293 cells expressing both 5-LO and FLAP were incubated in presence of the indicated compounds (1 μM) or their diluent (control, 0.5% DMSO) for 5 min, then biosynthesis of 5-LO products was initiated with the addition of 10 μM calcium ionophore A23187 and 10 μM arachidonic acid for 15 min. After stimulation, reactions were stopped and samples were processed for analysis of 5-LO products by RP-HPLC. Total 5-LO products measured represent the sum of LTB4, its trans isomers, and 5-hydroxyeicosatetraenoic acid. (b) Freshly isolated human PMNL were incubated in presence of test compounds (or their diluent control, DMSO 0.5%) at the indicated concentrations for 5 min. Biosynthesis of the 5-LO products was initiated with the addition of 1 μM of thapsigargin, followed by a 15 min incubation period at 37°C. The stimulation was then stopped and samples were processed for RP-HPLC analysis and total 5-LO products quantification. Total 5-LO products measured represent the sum of LTB4, its trans isomers, 20-COOH- and 20-OH-LTB4 and 5-hydroxyeicosatetraenoic acid. Data are expressed as means ± SEM of at least 3 independent experiments. ^∗Different from control, as determined by one-way ANOVA with Dunnett's multiple comparison test (p < 0.05).

Compound	IC50
C=C(C)CCOC(=O)/C=C/c1ccc(O)c(O)c1 [Compound 9]	870 nM
O=C(/C=C/c1ccc(O)c(O)c1)OCCc1ccc(F)cc1 [Compound 14]	1010 nM
Cc1ccc(CCOC(=O)/C=C/c2ccc(O)c(O)c2)cc1 [Compound 15]	1040 nM
COc1ccc(CCOC(=O)/C=C/c2ccc(O)c(O)c2)cc1 [Compound 16]	1290 nM

Now those with a lower IC50, led by results:

IC50	Compound
790 nM	O=C(/C=C/c1ccc(O)c(O)c1)OCCc1ccccc1 [CAPE (2), Caffeic acid phenethyl ester, reference compound]
490 nM	O=C(/C=C/c1ccc(O)c(O)c1)OCCCc1ccccc1 [Compound 13]
530 nM	O=C(/C=C/c1ccc(O)c(O)c1)OCC(c1ccccc1)c1ccccc1 [Compound 19]
